Reference: US10370380B2, “Octahydropyrrolo[3,4-c]pyrrole derivatives and uses thereof” (Sunshine Lake Pharma Co., Ltd., priority 2015, dated 2019)
pIC50: −log10 of the molar value.

How the values were obtained:
[1] = target: T1, humanized OX1 receptor (Homo sapiens, UniProt O43613); assay: Antagonistic effect on humanized OX1 receptor, calcium flux by fluorescence detection in CHO cells; format: cell-based
T1 construct: expressed in transfected cells; host or cells: CHO (Chinese hamster ovary) cells
T1 sequence (O43613 1-425): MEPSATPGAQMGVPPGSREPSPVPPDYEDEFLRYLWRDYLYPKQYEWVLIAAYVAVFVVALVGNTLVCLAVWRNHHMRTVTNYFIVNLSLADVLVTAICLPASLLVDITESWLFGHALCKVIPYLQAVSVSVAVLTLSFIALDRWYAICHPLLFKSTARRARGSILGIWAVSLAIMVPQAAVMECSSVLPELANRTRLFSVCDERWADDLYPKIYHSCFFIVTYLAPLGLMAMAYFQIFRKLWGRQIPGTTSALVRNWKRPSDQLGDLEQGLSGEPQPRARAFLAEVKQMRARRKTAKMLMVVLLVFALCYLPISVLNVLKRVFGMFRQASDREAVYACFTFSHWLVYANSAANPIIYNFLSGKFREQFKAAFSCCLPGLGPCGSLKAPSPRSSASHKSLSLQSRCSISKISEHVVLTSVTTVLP
Experimental: The capability of the compounds provided herein to antagonize humanized OX1 receptor expressed in Chinese hamster ovary (CHO) cells was evaluated by the influence of the compounds disclosed herein on calcium flux in cells induced by agonist detected by a method of fluorescence detection. The cells were suspended in DMEM culture medium (invitrogen), and then added to a microplate with an average density of 2×10^4 cells/well. The Hank's balanced salt solution (pH 7.4) containing fluorescent probes (Fluo4 NW, Invitrogen), probenecid (invitrogen), 20 mM hydroxyethyl piperazine acetic sulfuric acid (invitrogen) was added to the above microplate, and then incubated together with the cells at 37° C. for 60 min, further incubated at 22° C. for 15 min. The microplate was placed in a microplate reader (CellLux, PerkinElmer), and to which was added the test compound or reference antagonist or Hank's balanced salt solution, 5 min later, 3 nM of orexin A or Hank's balanced salt solution (as a blank contrast) was added. […] The experimental results were expressed as an inhibition percentage relative to a control group (the group with 3 nM of orexin A).
The standard reference antagonist is SB334867, and IC50 values were calculated by the dose-effect curve obtained from a series of concentrations of the experimental test.

[2] = Stability in human liver microsome; format: in vitro ADME; conditions: human, microsomes, pH 4
Experimental: A mixture of the compound of the invention and human liver microsome in 0.1 M potassium phosphate buffer (containing 1.0 mM EDTA, pH=4) was incubated at 37° C., the sample concentrations at different incubation times were measured, and then the half life of the compound was calculated by plotting “the relative amount of the compound” against “incubation time” by using software GraphPad Prism 5.01, and intrinsic clearance was calculated. The experiment system shown as table 5:
The sample was analyzed by LC/MS/MS (ESI […] source and waters xbridge C18 EB-A-1420 chromatographic column were adopted), the mobile phases were an aqueous solution with 2 mM ammonium formate and 0.1% formic acid (mobile phase A) and an methanol solution with 2 mM ammonium formate and 0.1% formic acid (mobile phase B), the flow rate was 0.4 mL/min; the column temperature was 40° C. The ratio of the sample peak area to the internal standard peak area was obtained through LC/MS/MS analysis, the content of the compound at 0 time point was as 100%, the relative content of the compound at each time point was calculated. The half life of the compound was calculated by plotting “the relative amount of the compound” against “incubation time”, and intrinsic clearance was calculated.
The positive control is suvorexant.

[3] = Pharmacokinetic evaluation after intravenous or gavage administration to rats; format: in vivo, SD rats; conditions: SD, rat, in vivo
Experimental: The compounds disclosed herein were administered in form of a saline solution containing 5% DMSO, 5% Kolliphor HS 15, 2% (2% HCl) and 88% Saline, or a solution containing 10% DMSO, 10% Kolliphor HS 15 and 80% physiological saline to the subject animals. For intravenous administration, the animals were administered with a dose of 1 mg/kg or 2 mg/kg, and vein blood samples (0.3 mL) were collected at the time points of 0.083, 0.25, 0.5, 1.0, 2.0, 4.0, 6.0, 8.0 and 24 h after drug administration; plasma samples were collected by centrifugation of the vein blood samples at 3000 rpm or 4000 rpm for 10 minutes, and stored at −20° C. or −70° C. For gavage administration, the animals were administered with a dose of 2.5 mg/kg or 5 mg/kg, and vein blood samples (0.3 mL) were collected at the time points of 0.25, 0.5, 1.0, 2.0, 4.0, 6.0, 8.0 and 24 h after drug administration; plasma samples were collected by centrifugation at 3000 rpm or 4000 rpm for 10 minutes, and stored at −20° C. or −70° C. The positive control is suvorexant.
The above plasma samples were analyzed by the LC-MS/MS system.

Question: With `Cc1ccc(-n2nccn2)c(C(=O)N2CC3CN(c4nc5cc(Cl)ccc5o4)CC3C2)c1` (stereo not shown) [Example 1, (5-(5-chlorobenzo[d]oxazol-2-yl)hexahydropyrrolo[3,4-c]pyrrol-2(1H)-yl)(5-methyl-2-(2H-1,2,3-triazol-2-yl)phenyl)methanone] as the molecule, how does the pIC50 [1] read?
Answer: 6.22

Question: And the CLint scaled at 1 μM [2]?
Answer: 35.1 mL/min/kg

Question: And the half-life at 1 μM [2]?
Answer: 49.5 min

Question: And the AUC(0-inf) ([3]; iv, 1 mg/kg)?
Answer: 417 ng·h/mL

Question: And the AUC(0-t) ([3]; iv, 1 mg/kg)?
Answer: 415 ng·h/mL

Question: And the Cmax ([3]; iv, 1 mg/kg)?
Answer: 646 ng/mL

Question: And the MRT inf ([3]; iv, 1 mg/kg)?
Answer: 38.3 min

Question: And the Vd ([3]; iv, 1 mg/kg)?
Answer: 1.53 L/kg

Question: And the clearance ([3]; iv, 1 mg/kg)?
Answer: 40 mL/min/kg

Question: And the half-life ([3]; iv, 1 mg/kg)?
Answer: 40.6 min

Question: And the AUC(0-inf) ([3]; po, 2.5 mg/kg)?
Answer: 659 ng·h/mL

Question: What about the AUC(0-t) ([3]; po, 2.5 mg/kg) of the same molecule?
Answer: 482 ng·h/mL

Question: What about the Cmax ([3]; po, 2.5 mg/kg) of the same molecule?
Answer: 181 ng/mL

Question: And the F ([3]; po, 2.5 mg/kg)?
Answer: 50.1%

Question: And the MRT inf ([3]; po, 2.5 mg/kg)?
Answer: 182 min

Question: And the half-life ([3]; po, 2.5 mg/kg)?
Answer: 133 min
